The subject of experiment [1] is Escherichia coli. The experiment is described as follows: Induction of strand cleavage in pBR322 DNA in absence of irradiation assessed as conversion of supercoiled DNA to […] circular form at 200 uM.
Experiment [2] concerns Escherichia coli. The experiment is described as follows: Induction of strand cleavage in pBR322 DNA after irradiation with 5 J/cm^2 assessed as conversion of supercoiled DNA to […] circular form at 200 uM.

The source made the active and inactive calls. The calls are words filed in the database; no cut-off is given here.

For `CN(C)CCCC(=O)Nc1ccc2cc3ccccc3cc2c1[N+](=O)[O-]`, the result in the experiment with Escherichia coli [1] was inactive. Moreover, the outcome in the experiment with Escherichia coli [2] was Active.
Taken in the same sequence, the figures for `CN(C)CCCC(=O)Nc1ccc2cc3ccccc3c([N+](=O)[O-])c2c1` were “inactive” and “Active”.
